The source made the active and inactive calls. The calls are words filed in the database; no cut-off is given here.
Experiments:
[1] = target: Serine/threonine-protein kinase NLK (Homo sapiens) (UniProt Q9UBE8); assay: nemo-like kinase Millipore kinase panel; conditions: Compound concentration 10.0 uM
[2] = target: Serine/threonine-protein kinase Sgk3 (Homo sapiens) (UniProt Q96BR1); assay: serum/glucocorticoid regulated kinase family, member 3 Millipore kinase panel; conditions: Compound concentration 10.0 uM
[3] = target: Serine/threonine-protein kinase Sgk2 (Homo sapiens) (UniProt Q9HBY8); assay: serum/glucocorticoid regulated kinase 2 Millipore kinase panel; conditions: Compound concentration 10.0 uM
[4] = target: mTOR/FKBP12A/FKBP12B (Homo sapiens) (UniProt P62942+P68106+P42345); assay: mechanistic target of rapamycin / FKBP12 Millipore kinase panel; type: protein-complex assay; conditions: Compound concentration 10.0 uM
[5] = target: C-X-C chemokine receptor type 2 (Homo sapiens) (UniProt P25025); assay: hBCXCR2 Cerep panel; conditions: Compound concentration 10.0 uM
[6] = target: MAP kinase-activated protein kinase 5 (Homo sapiens) (UniProt Q8IW41); assay: mitogen-activated protein kinase-activated protein kinase 5 Millipore kinase panel; conditions: Compound concentration 10.0 uM
[7] = target: Focal adhesion kinase 1 (Homo sapiens) (UniProt Q05397); assay: PTK2 protein tyrosine kinase 2 Millipore kinase panel; conditions: Compound concentration 10.0 uM
Chain of Focal adhesion kinase 1 (Homo sapiens) (Q05397 2-1052 limits assumed): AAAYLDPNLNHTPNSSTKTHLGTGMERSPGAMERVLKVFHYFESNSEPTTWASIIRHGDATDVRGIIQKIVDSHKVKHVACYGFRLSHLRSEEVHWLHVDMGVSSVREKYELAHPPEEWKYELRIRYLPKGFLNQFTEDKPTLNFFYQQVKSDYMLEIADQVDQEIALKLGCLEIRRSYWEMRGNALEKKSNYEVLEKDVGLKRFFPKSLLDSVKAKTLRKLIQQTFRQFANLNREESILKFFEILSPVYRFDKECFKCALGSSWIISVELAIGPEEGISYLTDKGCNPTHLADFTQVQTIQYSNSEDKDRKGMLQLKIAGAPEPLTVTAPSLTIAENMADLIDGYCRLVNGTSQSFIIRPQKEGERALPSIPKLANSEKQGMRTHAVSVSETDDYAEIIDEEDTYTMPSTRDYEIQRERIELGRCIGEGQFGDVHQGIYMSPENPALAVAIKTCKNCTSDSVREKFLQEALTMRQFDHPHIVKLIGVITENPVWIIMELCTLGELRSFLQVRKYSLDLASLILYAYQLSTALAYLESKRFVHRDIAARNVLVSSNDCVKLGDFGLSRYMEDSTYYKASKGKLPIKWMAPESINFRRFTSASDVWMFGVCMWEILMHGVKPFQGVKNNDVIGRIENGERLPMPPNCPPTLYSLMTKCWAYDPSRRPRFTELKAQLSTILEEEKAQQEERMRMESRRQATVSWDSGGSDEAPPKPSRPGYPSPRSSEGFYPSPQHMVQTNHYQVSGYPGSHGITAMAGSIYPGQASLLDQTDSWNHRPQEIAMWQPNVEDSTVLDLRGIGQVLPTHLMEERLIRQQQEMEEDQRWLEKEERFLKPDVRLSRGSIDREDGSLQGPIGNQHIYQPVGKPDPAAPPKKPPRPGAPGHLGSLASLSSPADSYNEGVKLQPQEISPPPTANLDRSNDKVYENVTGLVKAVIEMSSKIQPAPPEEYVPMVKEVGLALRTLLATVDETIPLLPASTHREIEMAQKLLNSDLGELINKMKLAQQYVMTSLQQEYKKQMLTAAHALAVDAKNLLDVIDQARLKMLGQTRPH

[8] = target: Tyrosine-protein kinase FRK (Homo sapiens) (UniProt P42685); assay: fyn-related kinase Millipore kinase panel; conditions: Compound concentration 10.0 uM
[9] = target: Mitogen-activated protein kinase 1 (Homo sapiens) (UniProt P28482); assay: mitogen-activated protein kinase 1 Millipore kinase panel; conditions: Compound concentration 10.0 uM
[10] = target: Serine/threonine-protein kinase ULK2 (Homo sapiens) (UniProt Q8IYT8); assay: unc-51-like kinase 2 Millipore kinase panel; conditions: Compound concentration 10.0 uM
Chain of Serine/threonine-protein kinase ULK2 (Homo sapiens) (Q8IYT8 whole entry): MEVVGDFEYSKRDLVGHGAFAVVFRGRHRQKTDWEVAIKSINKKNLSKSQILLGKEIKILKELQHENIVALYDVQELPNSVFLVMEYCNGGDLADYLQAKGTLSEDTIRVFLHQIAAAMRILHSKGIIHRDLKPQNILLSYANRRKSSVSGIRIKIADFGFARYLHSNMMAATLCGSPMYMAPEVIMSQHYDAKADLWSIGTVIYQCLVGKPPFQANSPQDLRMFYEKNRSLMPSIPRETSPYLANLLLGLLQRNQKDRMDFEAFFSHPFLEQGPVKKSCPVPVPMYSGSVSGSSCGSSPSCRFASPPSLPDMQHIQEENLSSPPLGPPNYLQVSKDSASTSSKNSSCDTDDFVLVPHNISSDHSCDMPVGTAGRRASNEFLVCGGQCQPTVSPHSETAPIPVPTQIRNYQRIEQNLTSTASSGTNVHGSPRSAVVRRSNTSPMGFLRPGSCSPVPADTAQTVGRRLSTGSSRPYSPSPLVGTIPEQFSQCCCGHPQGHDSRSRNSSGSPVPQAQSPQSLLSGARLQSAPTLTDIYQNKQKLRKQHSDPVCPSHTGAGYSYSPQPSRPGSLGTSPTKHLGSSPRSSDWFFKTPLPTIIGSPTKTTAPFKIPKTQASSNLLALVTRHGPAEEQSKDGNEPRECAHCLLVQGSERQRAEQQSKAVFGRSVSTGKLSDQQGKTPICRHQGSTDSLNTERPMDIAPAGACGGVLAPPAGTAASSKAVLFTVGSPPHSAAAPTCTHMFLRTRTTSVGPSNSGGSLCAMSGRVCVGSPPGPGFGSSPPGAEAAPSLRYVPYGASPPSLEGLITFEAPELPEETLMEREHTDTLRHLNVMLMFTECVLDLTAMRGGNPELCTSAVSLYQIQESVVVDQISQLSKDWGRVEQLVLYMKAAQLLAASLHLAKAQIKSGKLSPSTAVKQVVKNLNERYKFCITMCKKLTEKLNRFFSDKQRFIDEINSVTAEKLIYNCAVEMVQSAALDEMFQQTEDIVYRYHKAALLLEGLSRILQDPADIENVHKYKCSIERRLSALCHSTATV

[11] = target: Tyrosine-protein kinase SYK (Homo sapiens) (UniProt P43405); assay: spleen tyrosine kinase Millipore kinase panel; conditions: Compound concentration 10.0 uM
[12] = target: C-C chemokine receptor type 1 (Homo sapiens) (UniProt P32246); assay: hCCR1 Cerep panel; conditions: Compound concentration 10.0 uM
Chain of C-C chemokine receptor type 1 (Homo sapiens) (P32246 whole entry): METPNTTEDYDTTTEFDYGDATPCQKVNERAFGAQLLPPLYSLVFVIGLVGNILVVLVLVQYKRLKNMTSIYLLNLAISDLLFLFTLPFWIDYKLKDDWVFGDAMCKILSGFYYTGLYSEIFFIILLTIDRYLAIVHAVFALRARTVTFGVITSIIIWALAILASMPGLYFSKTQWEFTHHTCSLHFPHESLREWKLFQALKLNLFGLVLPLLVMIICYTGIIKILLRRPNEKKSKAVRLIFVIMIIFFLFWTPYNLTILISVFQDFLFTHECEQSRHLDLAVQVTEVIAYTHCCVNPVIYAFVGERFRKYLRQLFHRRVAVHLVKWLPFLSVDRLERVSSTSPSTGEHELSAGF

[13] = target: MAP kinase-interacting serine/threonine-protein kinase 2 (Homo sapiens) (UniProt Q9HBH9); assay: MAP kinase interacting serine/threonine kinase 2 Millipore kinase panel; conditions: Compound concentration 10.0 uM
Chain of MAP kinase-interacting serine/threonine-protein kinase 2 (Homo sapiens) (Q9HBH9 whole entry, looked up): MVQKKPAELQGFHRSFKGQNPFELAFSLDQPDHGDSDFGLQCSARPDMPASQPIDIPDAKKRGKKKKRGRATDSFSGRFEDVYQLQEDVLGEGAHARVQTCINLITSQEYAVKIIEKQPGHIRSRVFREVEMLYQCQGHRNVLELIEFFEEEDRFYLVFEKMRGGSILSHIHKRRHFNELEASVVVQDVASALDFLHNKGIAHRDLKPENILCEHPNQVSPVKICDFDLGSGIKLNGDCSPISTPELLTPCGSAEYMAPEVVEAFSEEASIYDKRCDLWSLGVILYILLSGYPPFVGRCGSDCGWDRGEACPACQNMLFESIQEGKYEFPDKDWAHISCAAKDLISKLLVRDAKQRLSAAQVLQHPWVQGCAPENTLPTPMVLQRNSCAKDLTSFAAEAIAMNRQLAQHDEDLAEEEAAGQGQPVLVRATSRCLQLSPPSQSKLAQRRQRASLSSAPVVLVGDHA

Rattus norvegicus [14] = species on record: Rattus norvegicus; assay: rSKCa channel Cerep panel; conditions: Compound concentration 10.0 uM
[15] = target: CDK3/cyclin E (Homo sapiens) (UniProt P24864+O96020+Q00526); assay: cyclin-dependent kinase 3 / cyclinE Millipore kinase panel; type: protein-complex assay; conditions: Compound concentration 10.0 uM
[16] = target: Galanin receptor type 2 (Homo sapiens) (UniProt O43603); assay: hGAL2 Cerep panel; conditions: Compound concentration 10.0 uM
[17] = target: Cannabinoid receptor 1 (Homo sapiens) (UniProt P21554); assay: hCB1 Cerep panel; conditions: Compound concentration 10.0 uM
[18] = target: Fibroblast growth factor receptor 3 (Homo sapiens) (UniProt P22607); assay: fibroblast growth factor receptor 3 Millipore kinase panel; conditions: Compound concentration 10.0 uM
[19] = target: CDK7/Cyclin H/MNAT1 (Homo sapiens) (UniProt P51946+P50613+P51948); assay: Cyclin-dependent kinase 7 / cyclinH / MAT Millipore kinase panel; type: protein-complex assay; conditions: Compound concentration 10.0 uM
[20] = target: Substance-K receptor (Homo sapiens) (UniProt P21452); assay: hNK2 Cerep panel; conditions: Compound concentration 10.0 uM
[21] = target: cAMP and cAMP-inhibited cGMP 3',5'-cyclic phosphodiesterase 10A (Homo sapiens, UniProt Q9Y233); assay: SPA with human PDE10A
Rattus norvegicus [22] = species on record: Rattus norvegicus; assay: rK channel Cerep panel; conditions: Compound concentration 10.0 uM
[23] = target: Muscle, skeletal receptor tyrosine-protein kinase (Homo sapiens) (UniProt O15146); assay: muscle, skeletal, receptor tyrosine kinase Millipore kinase panel; conditions: Compound concentration 10.0 uM
[24] = target: T1, Alpha-2B adrenergic receptor (Homo sapiens) (UniProt P18089); assay: hAb2 Cerep panel; conditions: Compound concentration 10.0 uM
T1 sequence (whole entry): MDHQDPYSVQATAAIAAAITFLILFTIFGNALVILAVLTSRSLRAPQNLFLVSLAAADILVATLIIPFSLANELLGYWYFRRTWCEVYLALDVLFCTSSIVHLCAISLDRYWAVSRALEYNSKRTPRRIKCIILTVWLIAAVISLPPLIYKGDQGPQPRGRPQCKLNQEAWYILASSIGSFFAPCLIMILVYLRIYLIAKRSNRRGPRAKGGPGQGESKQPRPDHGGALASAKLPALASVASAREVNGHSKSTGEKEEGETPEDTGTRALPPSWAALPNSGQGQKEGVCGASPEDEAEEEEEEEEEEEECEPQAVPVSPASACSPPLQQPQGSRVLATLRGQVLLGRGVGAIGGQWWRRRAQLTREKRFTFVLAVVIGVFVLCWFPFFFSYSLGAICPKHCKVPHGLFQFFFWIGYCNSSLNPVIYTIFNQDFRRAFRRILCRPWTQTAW

[25] = target: Prostacyclin receptor (Homo sapiens) (UniProt P43119); assay: hIP1 Cerep panel; conditions: Compound concentration 10.0 uM
[26] = target: Ephrin type-A receptor 5 (Homo sapiens) (UniProt P54756); assay: EPH receptor A5 Millipore kinase panel; conditions: Compound concentration 10.0 uM
Chain of Ephrin type-A receptor 5 (Homo sapiens) (P54756 whole entry, the tested form may be a part): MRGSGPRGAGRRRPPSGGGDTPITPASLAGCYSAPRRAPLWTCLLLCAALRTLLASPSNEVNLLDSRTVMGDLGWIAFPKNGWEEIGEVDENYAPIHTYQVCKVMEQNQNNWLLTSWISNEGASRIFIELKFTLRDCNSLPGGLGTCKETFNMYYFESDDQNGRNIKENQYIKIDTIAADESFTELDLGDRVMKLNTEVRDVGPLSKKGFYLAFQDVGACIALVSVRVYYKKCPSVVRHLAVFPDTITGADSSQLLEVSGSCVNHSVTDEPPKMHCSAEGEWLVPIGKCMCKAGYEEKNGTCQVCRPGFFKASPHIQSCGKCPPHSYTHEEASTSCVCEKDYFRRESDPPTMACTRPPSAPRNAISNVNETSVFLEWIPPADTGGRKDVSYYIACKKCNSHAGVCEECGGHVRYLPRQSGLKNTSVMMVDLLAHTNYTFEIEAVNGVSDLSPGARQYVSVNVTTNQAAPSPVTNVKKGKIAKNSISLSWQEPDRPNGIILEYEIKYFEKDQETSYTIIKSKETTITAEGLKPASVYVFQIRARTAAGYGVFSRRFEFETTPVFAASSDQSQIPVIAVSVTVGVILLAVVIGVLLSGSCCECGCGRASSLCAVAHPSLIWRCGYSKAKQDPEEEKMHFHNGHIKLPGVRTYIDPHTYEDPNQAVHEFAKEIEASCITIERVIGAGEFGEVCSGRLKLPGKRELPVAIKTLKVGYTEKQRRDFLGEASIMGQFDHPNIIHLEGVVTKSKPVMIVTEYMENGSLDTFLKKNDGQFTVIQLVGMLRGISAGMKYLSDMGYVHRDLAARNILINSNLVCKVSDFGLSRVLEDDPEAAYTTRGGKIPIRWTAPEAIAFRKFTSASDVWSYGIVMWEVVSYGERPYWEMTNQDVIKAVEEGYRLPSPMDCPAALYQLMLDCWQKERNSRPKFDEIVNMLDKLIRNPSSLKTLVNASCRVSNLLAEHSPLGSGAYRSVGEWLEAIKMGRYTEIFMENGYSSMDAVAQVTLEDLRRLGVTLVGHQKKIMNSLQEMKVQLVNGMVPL

[27] = target: PAS domain-containing serine/threonine-protein kinase (Homo sapiens) (UniProt Q96RG2); assay: PAS domain containing serine/threonine kinase Millipore kinase panel; conditions: Compound concentration 10.0 uM
Homo sapiens = species on record: Homo sapiens; assay: p21 protein -activated kinase 2 Millipore kinase panel; conditions: Compound concentration 10.0 uM
[28] = target: T2, Muscarinic acetylcholine receptor M1 (Homo sapiens) (UniProt P11229); assay: hM1 Cerep panel; conditions: Compound concentration 10.0 uM
T2 sequence (whole entry): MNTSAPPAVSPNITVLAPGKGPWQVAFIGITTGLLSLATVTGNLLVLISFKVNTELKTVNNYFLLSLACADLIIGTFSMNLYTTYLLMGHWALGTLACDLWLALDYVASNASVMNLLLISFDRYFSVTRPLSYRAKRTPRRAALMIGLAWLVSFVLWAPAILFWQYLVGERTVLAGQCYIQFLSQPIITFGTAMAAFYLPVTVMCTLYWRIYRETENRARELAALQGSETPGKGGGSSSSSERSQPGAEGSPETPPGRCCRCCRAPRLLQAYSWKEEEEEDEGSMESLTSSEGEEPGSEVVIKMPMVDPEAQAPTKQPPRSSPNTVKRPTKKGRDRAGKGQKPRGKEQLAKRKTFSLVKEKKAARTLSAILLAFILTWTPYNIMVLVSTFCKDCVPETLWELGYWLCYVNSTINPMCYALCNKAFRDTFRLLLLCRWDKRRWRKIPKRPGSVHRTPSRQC

[29] = target: Dual specificity calcium/calmodulin-dependent 3',5'-cyclic nucleotide phosphodiesterase 1B (Homo sapiens, UniProt Q01064); assay: hPDE1B1 PDE scan
Chain of Dual specificity calcium/calmodulin-dependent 3',5'-cyclic nucleotide phosphodiesterase 1B (Q01064 whole entry): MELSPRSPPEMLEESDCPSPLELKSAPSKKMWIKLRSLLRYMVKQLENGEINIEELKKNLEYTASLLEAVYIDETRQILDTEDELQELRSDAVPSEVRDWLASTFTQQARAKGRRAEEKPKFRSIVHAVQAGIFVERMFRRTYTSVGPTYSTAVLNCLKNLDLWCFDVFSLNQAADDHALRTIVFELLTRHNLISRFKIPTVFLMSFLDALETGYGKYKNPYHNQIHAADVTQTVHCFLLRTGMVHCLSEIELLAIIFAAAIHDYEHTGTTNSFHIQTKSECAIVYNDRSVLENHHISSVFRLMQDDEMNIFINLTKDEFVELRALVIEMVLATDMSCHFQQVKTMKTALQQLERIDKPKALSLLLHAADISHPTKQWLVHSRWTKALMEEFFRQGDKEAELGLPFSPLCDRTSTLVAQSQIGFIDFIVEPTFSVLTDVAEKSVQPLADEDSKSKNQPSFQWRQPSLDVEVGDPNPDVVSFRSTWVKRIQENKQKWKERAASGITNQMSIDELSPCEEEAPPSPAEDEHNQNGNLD

[30] = target: Glutamate NMDA receptor (Rattus norvegicus) (UniProt P35439+Q00959+Q00960+Q00961+Q62645+Q8VHN2+Q9R1M7); assay: rNMDA Cerep panel; type: protein-complex assay; conditions: Compound concentration 10.0 uM
[31] = target: Ribosomal protein S6 kinase alpha-5 (Homo sapiens) (UniProt O75582); assay: ribosomal protein S6 kinase, 90kDa, polypeptide 5 Millipore kinase panel; conditions: Compound concentration 10.0 uM
[32] = target: Ephrin type-A receptor 3 (Homo sapiens) (UniProt P29320); assay: EPH receptor A3 Millipore kinase panel; conditions: Compound concentration 10.0 uM
[33] = target: Protein kinase C delta type (Homo sapiens) (UniProt Q05655); assay: protein kinase C, delta Millipore kinase panel; conditions: Compound concentration 10.0 uM
[34] = target: Serine/threonine-protein kinase 3 (Homo sapiens) (UniProt Q13188); assay: serine/threonine kinase 3 Millipore kinase panel; conditions: Compound concentration 10.0 uM
Chain of Serine/threonine-protein kinase 3 (Homo sapiens) (Q13188 whole entry): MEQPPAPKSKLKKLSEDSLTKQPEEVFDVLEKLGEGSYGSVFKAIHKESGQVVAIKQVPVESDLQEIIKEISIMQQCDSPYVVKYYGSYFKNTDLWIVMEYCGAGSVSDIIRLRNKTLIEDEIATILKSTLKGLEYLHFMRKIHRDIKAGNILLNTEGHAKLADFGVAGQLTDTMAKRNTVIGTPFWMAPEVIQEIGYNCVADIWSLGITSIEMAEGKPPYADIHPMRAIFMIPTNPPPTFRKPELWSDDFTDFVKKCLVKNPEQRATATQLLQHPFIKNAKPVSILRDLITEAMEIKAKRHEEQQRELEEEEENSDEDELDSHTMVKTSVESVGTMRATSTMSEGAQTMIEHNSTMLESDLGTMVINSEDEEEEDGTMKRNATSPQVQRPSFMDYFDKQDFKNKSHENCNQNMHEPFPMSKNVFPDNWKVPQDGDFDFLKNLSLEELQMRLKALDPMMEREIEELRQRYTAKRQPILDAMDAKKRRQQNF

[35] = target: Neuromedin-K receptor (Homo sapiens) (UniProt P29371); assay: hNK3 Cerep panel; conditions: Compound concentration 10.0 uM
[36] = target: Serine/threonine-protein kinase STK11 (Homo sapiens) (UniProt Q15831); assay: serine/threonine kinase 11 Millipore kinase panel; conditions: Compound concentration 10.0 uM

**Q.** For `COCCc1ccc(-c2c(C)nc3c(N4CCOCC4)ccnn23)cn1` [JNJ-42396302], which inhibition [1] is on record?
**A.** 2%

**Q.** And the inhibition [2]?
**A.** 1%

**Q.** What about the inhibition [3] of the same molecule?
**A.** -3%

**Q.** And the inhibition [4]?
**A.** 9%

**Q.** What about the effect [5] of the same molecule?
**A.** 5.15%

**Q.** What about the inhibition [6] of the same molecule?
**A.** 7%

**Q.** And the inhibition [7]?
**A.** -2%

**Q.** And the inhibition [8]?
**A.** -7%

**Q.** And the inhibition [9]?
**A.** 1%

**Q.** And the inhibition [10]?
**A.** 6%

**Q.** What about the inhibition [11] of the same molecule?
**A.** -7%

**Q.** What about the effect [12] of the same molecule?
**A.** -7.45%

**Q.** And the inhibition [13]?
**A.** 10%

**Q.** And the effect (Rattus norvegicus [14])?
**A.** 7.4%

**Q.** What about the inhibition [15] of the same molecule?
**A.** 7%

**Q.** And the effect [16]?
**A.** 6.7%

**Q.** And the effect [17]?
**A.** 4.05%

**Q.** And the inhibition [18]?
**A.** -2%

**Q.** And the inhibition [19]?
**A.** 1%

**Q.** What about the effect [20] of the same molecule?
**A.** 9.7%

**Q.** And the Ki [21]?
**A.** 0.013 µM (active)

**Q.** What about the effect (Rattus norvegicus [22]) of the same molecule?
**A.** -9.45%

**Q.** And the inhibition [23]?
**A.** -6%

**Q.** And the effect [24]?
**A.** -4.45%

**Q.** And the effect [25]?
**A.** -23.4%

**Q.** And the inhibition [26]?
**A.** -9%

**Q.** And the inhibition [27]?
**A.** 5%

**Q.** And the inhibition (Homo sapiens)?
**A.** -3%

**Q.** And the effect [28]?
**A.** 2.2%

**Q.** What about the Ki [29] of the same molecule?
**A.** 3.4 µM

**Q.** What about the effect [30] of the same molecule?
**A.** -9.45%

**Q.** And the inhibition [31]?
**A.** 3%

**Q.** What about the inhibition [32] of the same molecule?
**A.** 4%

**Q.** And the inhibition [33]?
**A.** -2%

**Q.** And the inhibition [34]?
**A.** -8%

**Q.** What about the effect [35] of the same molecule?
**A.** -8.65%

**Q.** What about the inhibition [36] of the same molecule?
**A.** 4%

Source: ChEMBL document CHEMBL4800727 (2021)
